{
  "source": "patent US11845803B2",
  "about": "“Combination therapies for treatment of BCMA-related cancers and autoimmune disorders” (Fred Hutchinson Cancer Center, priority 2017, dated 2023)",
  "key": {"MM cell lines": {"system": "MM cell lines", "assay": "Viability of MM cell lines cultured in GSI, propidium iodide staining", "format": "cell-based, human", "conditions": "1.0 μM in culture", "protocol": "(L) Viability of indicated MM-expressing cells as measured by propidium iodide staining of cell lines cultured in 1 μM GSI.\nNext, the effect of removing GSI from MM cell culture was examined. […] Finally, the viability of the tested MM cell lines was not affected by addition of 1.0 μM RO429097 to culture (FIG. 3L)."}, "primary human T cells": {"system": "primary human T cells", "assay": "Primary human T cell viability in GSI, trypan blue dye exclusion", "format": "cell-based", "conditions": "0.01 μM to 100 μM; 24 hours", "protocol": "(B) Primary human T cells were cultured in GSI RO4929097 at concentrations ranging from 0.01 μM to 100 μM and viability was measured by trypan blue dye exclusion after 24 hours. There was no effect of GSI, at any concentration, on T cell viability."}, "[1]": {"system": "myeloma cell lines (MM1.R, U266 and 8226)", "assay": "Soluble BCMA (sBCMA) in culture supernatant of myeloma cell lines with GSI, ELISA", "format": "cell-based, human", "protocol": "(I) U266 myeloma cells were washed and plated in culture media in the presence of various concentrations of GSI RO429097 (0.01 μM, 0.1 μM and 1.0 μM). The media supernatant was harvested after 1, 3, 5 and 24 hours and assayed for soluble BCMA (sBCMA) by ELISA. […] To test the effect of GSI on BCMA shedding in MM, three different myeloma cell lines (MM1.R, U266 and 8226) were washed and plated in culture media for 24 hours in the presence of various concentrations of GSI RO429097 (0.01 μM, 0.1 μM and 1.0 μM). The media supernatant was harvested and assayed for sBCMA by ELISA. sBCMA levels decreased in the supernatant in the presence of a GSI in a dose dependent manner (FIGS. 3G & 3H). To examine the effect on soluble BCMA (sBCMA) levels over time, U266 cells were washed and plated in culture media for 1, 3, 5 and 24 hours in the presence of various concentrations of GSI RO429097 (0.01 μM, 0.1 μM and 1.0 μM). The media supernatant was harvested and assayed for soluble BCMA (sBCMA) by ELISA. […] Next, the effect of removing GSI from MM cell culture was examined. […] Finally, the viability of the tested MM cell lines was not affected by addition of 1.0 μM RO429097 to culture (FIG. 3L)."}, "[2]": {"system": "myeloma cell lines (8226, U266B1, MM1.R, H929)", "assay": "Surface BCMA expression on myeloma cell lines incubated with GSI, flow cytometry", "format": "cell-based, human", "protocol": "(A) Cell surface BCMA was measured on four myeloma cell lines (8226, U266B1, MM1.R, H929) by flow cytometry with an anti-BCMA monoclonal antibody before, and 5 hours after (see diagrams), incubation of the myeloma cell lines with GSI RO4929097 in a range of concentrations from 0 μM (DMSO control) to 1.0 μM. (E) U266 myeloma cells were incubated for 1, 3, 5 and 24 hours in the presence of various concentrations of GSI RO429097 (0.01 μM, 0.1 μM and 1.0 μM) and evaluated for surface BCMA expression by flow cytometry. […] (F) Fold change of surface BCMA expression on cell lines (MM1R=triangle; U266=square; 8226=circle) cultured in 1 μM GSI over time. GSI was re-administered as a half media change every 2 days. Fold change in BCMA is defined as Treated (MFIBCMA-MFIiso)/Control (MFIBCMA-MFIiso). Data is representative of at least 2 independent experiments. To examine the effect of γ-secretase inhibition on BCMA levels on myeloma cells, γ-secretase inhibitor (GSI) RO4929097 was used. […] To examine the effect of GSI on surface BCMA expression kinetics, U266 myeloma cells were incubated for 1, 3, 5 and 24 hours in the presence of various concentrations of GSI RO429097 (0.01 μM, 0.1 μM and 1.0 μM) and evaluated for cell surface BCMA expression by flow cytometry. […] The upregulation persisted over 7 days of culture in 1.0 μM GSI (FIG. 3F). Next, the effect of removing GSI from MM cell culture was examined. […] Finally, the viability of the tested MM cell lines was not affected by addition of 1.0 μM RO429097 to culture (FIG. 3L)."}, "[3]": {"system": "CD138+ primary myeloma cells", "assay": "Surface BCMA and other surface molecules on primary patient myeloma cells incubated with GSI, flow cytometry", "format": "cell-based, human", "protocol": "(N) Fold change in BCMA on primary myeloma cells (n=7) cultured with vary amounts of GSI for 4 h. Primary and cell lines were cultured at 0.5×10^6 cells/mL. Fold change in BCMA is defined as Treated (MFIBCMA-MFIiso)/Control (MFIBCMA-MFIiso). Data is representative of 3 independent experiments with T cells derived from different donors. […] (R) CD138+ primary myeloma cells were enriched from patient bone marrow samples, incubated for 3 hours in the presence of various concentrations of GSI RO429097 (0.01 μM to 10 μM) and evaluated for surface BCMA expression by flow cytometry. BCMA mean fluorescence intensity (MFI) on tumor cells is presented as fold increase over that observed on tumor cells incubated without RO429097. There is an observed dose dependent upregulation of BCMA. The effect of GSI on BCMA expression was then tested on primary myeloma samples from patients. CD138^+ myeloma cells were enriched from patient bone marrow samples, incubated for 3 hours in the presence of various concentrations of GSI RO429097 (0.01 μM to 10 μM) and evaluated for surface BCMA expression by flow cytometry (FIGS. 3M and 3R). BCMA mean fluorescence intensity (MFI) on tumor cells is presented as fold increase over tumor cells incubated without RO4929097."}, "[4]": {"conditions": "U266, 1, 3, 5 and 24 hours, 0.01, 0.1 and 1.0 μM"}},
  "data": [
    {"compound": "CC(C)(C(=O)NCC(F)(F)C(F)(F)F)C(=O)N[C@@H]1C(=O)Nc2ccccc2-c2ccccc21", "note": "[RO4929097]", "values": [
      {"measurement": "viability of MM cell lines", "setting": "MM cell lines", "result": "not affected"},
      {"measurement": "T cell viability", "setting": "primary human T cells", "result": "no effect"},
      {"measurement": "effect of GSI on surface BCMA shedding (reversibility)", "setting": "[1]; 1.0 μM GSI removed or continued", "result": "reversible inhibitory effect"},
      {"measurement": "sBCMA levels in supernatant", "setting": "[1]; MM1.R, U266 and 8226, 24 hours, 0.01, 0.1 and 1.0 μM", "result": "decreased"},
      {"measurement": "GSI concentration at which BCMA release into supernatant was decreased", "setting": "[1]; U266, 1, 3, 5 and 24 hours", "result": "at least 0.01 μM"},
      {"measurement": "soluble BCMA levels in supernatant over time", "setting": "[1]; [4]", "result": "dose-dependent decrease"},
      {"measurement": "supernatant sBCMA following removal of GSI", "setting": "[1]; after removal of 1.0 μM GSI vs continued GSI", "result": "increased when the GSI was removed"},
      {"measurement": "persistence of surface BCMA upregulation in culture", "setting": "[2]; 1.0 μM GSI, GSI re-administered every 2 days", "result": "≥ 7", "unit": "days"},
      {"measurement": "surface BCMA on myeloma cell lines", "setting": "[2]; GSI 0.001 μM to 1.0 μM", "result": "rapidly upregulated"},
      {"measurement": "time of peak increase in surface BCMA expression", "setting": "[2]; U266, 0.01-1.0 μM GSI", "result": 5, "unit": "h"},
      {"measurement": "cell surface BCMA expression on U266 cells", "setting": "[2]; [4]", "result": "increased in a dose-dependent manner"},
      {"measurement": "surface BCMA levels following removal of GSI", "setting": "[2]; after removal of 1.0 μM GSI", "result": "decreased"},
      {"measurement": "surface BCMA (MFI, fold increase) on primary myeloma cells", "setting": "[3]; 3 hours, 0.01 μM to 10 μM", "result": "dose-dependent upregulation"},
      {"measurement": "levels of other cell surface molecules (CS1, CD86, PD-L1, CD80, CD38)", "setting": "[3]; primary myeloma cells, various GSI concentrations", "result": "no effect"}
    ]}
  ]
}
